Experimental data reported in patent US8207224B2, “Preservatives based on carboxylic anhydrides” (LANXESS Deutchland GmbH, priority 2006, dated 2012).
Where “and” joins values, the source holds several entries; their conditions need not be identical. Identical values can stand only once.

What was measured:
Format in all cases: cell-based
Saccharomyces cerevisiae = assay: Sterilization test in contaminated apple juice against Saccharomyces cerevisiae; conditions: for Germ number after 24 h (carried out in duplicate): contact time 24 hours at 20° C. As to Visual evaluation after 4 weeks: key: − = not fermented; + = fermented.
Method: (§1) Soft drinks were contaminated with the respective stated microorganisms. The active compound concentration required for disinfecting the beverages was determined by sterilization tests.
(§2) Nutrient Media: Yeast orange serum agar (from Oxoid CM657)
(§3) Substances: The substances used were employed neat or as ethanolic or butanolic solutions (for example 2.0% by volume) or suspensions. Dimethyl dicarbonate, Na benzoate, K sorbate, sorbic anhydride and benzoic anhydride were synthesized by known methods or were commercially available. The respective solutions were in each case freshly prepared (alcoholysis). Apparatus: 50 ml tissue culture flasks from Greiner, gauze compresses from Holthans, Thoma counting chamber from Brand.
(§4) As a matter of principle, sterile reagents and apparatus were used. In addition to sterile disposable articles, the required apparatus and reagents were sterilized by suitable measures before use. Sterilization measures were heat treatment in a drying cabinet (at least 8 hours at about 120° C.) or in an autoclave (at least 15 minutes at about 120° C.).
(§5) Before the test was carried out, the beverage substrates were filled into tissue culture flasks. In general, the amount of beverage was 40 ml. Filling was carried out under sterile conditions. At this point in time, it was also possible for the persistent preservatives to be introduced.
(§6) The cultures, which were grown under optimum conditions (in tissue culture flasks from Greiner; 50 ml, 25 cm^2 or in oblique agar tubes), were wetted with up to 30 ml (depending on the test germ) of NaCl solution (if appropriate with addition of about 3 drops of Tween 80), rinsed off or, using glass beads (depending on the germ), scrubbed off intensively and, if required, filtered. Alternatively, it was also possible to employ fluid cultures. Using a microscope and a Thoma chamber, it was possible to carry out a preliminary determination of the germ number. An accurate determination of the germ number of the germ solution used was carried out using the Koch inoculation plate method.
(§7) Depending on the given germ seed (for example 50-500 germs/ml of substrate), the appropriate volume of germ solution (original or dilution) were added and the sample was shaken intensively.
(§8) The doses of active compound, added as pure substance or as appropriate alcoholic solution or suspension in the case of dimethyl dicarbonate and the carboxylic anhydrides, were then added. For a period of about 20 seconds, the samples were immediately shaken intensively.
(§9) The beverage samples were stored at a cultivation temperature of 26° C.±2° C.
(§10) In the case of formerly clear beverages, clouding indicates contamination. In the case of cloudy fruit pulp-containing beverages, visual evaluation was not always possible. Accordingly, in these cases evaluation was carried out as a germ number determination in agar.
The tests were carried out as stated in Example 1.

[1] = tested on: Mixture of different problem yeasts from a beverage filling unit; assay: Sterilization test in contaminated apple juice against yeast mix; conditions: germ seed 56.000 cfu/ml; as to Visual evaluation after 4 weeks: key: − = not fermented; + = fermented
Method: as §1, §2, §3, §4, §5, §6, §7, §8, §9, §10
The tests were carried out as Stated in Example 1.

[2] = tested on: Mixture of different problem yeasts from a beverage filling unit; assay: as above; conditions: contact time 24 hours at 20° C., germ seed 56.000 cfu/ml; as to Visual evaluation after 4 weeks: key: − = not fermented; + = fermented
[3] = 100 mg/l, pH 3.5, apple juice, germ seed 56 000 cfu/ml
[4] = 150 mg/l, pH 3.5, apple juice, germ seed 56 000 cfu/ml
[5] = 150 mg/l, pH 6.0, apple juice, germ seed 56 000 cfu/ml
[6] = 250 mg/l, pH 3.5, apple juice, germ seed 56 000 cfu/ml
[7] = 250 mg/l, pH 6.0, apple juice, germ seed 56 000 cfu/ml
[8] = Table 2: 250 mg/l, apple juice, germ seed 56.000 cfu/ml
[9] = 177 mg/l, pH 3.5, apple juice, germ seed 56 000 cfu/ml
[10] = 177 mg/l, pH 6.0, apple juice, germ seed 56 000 cfu/ml
[11] = Table 2: 177 mg/l, apple juice, germ seed 56.000 cfu/ml
[12] = Table 2: 50 mg/l, apple juice, germ seed 56.000 cfu/ml
[13] = Table 2: 100 mg/l, apple juice, germ seed 56.000 cfu/ml

O=C(OC(=O)c1ccccc1)c1ccccc1 [Benzoic anhydride, benzoic anhydride]
Germ number after 24 h (carried out in duplicate) (Saccharomyces cerevisiae; [3]): <10
Visual evaluation after 4 weeks (Saccharomyces cerevisiae; [3]): −
Visual evaluation after 4 weeks (Saccharomyces cerevisiae; 100 mg/l, pH 6.0, apple juice, germ seed 56 000 cfu/ml): +
Germ number after 24 h (carried out in duplicate) (Saccharomyces cerevisiae; [4]): <10
Visual evaluation after 4 weeks (Saccharomyces cerevisiae; [4]): −
Germ number after 24 h (carried out in duplicate) (Saccharomyces cerevisiae; [5]): about 10
Visual evaluation after 4 weeks (Saccharomyces cerevisiae; [5]): +
Germ number after 24 h (carried out in duplicate) (Saccharomyces cerevisiae; [6]): <10
Visual evaluation after 4 weeks (Saccharomyces cerevisiae; [6]): −
Germ number after 24 h (carried out in duplicate) (Saccharomyces cerevisiae; [7]): <10
Visual evaluation after 4 weeks (Saccharomyces cerevisiae; [7]): −

COC(=O)OC(=O)OC [Dimethyl dicarbonate, reference compound]
Visual evaluation after 4 weeks (Saccharomyces cerevisiae; [6]): +
Visual evaluation after 4 weeks (Saccharomyces cerevisiae; [7]): +
Germ number after 24 h (carried out in duplicate) (Saccharomyces cerevisiae; [8]): <10
Visual evaluation after 4 weeks (Saccharomyces cerevisiae; [8]): +
Germ number after 24 h (carried out in duplicate) ([1]; 250 mg/l, contact time 24 hours at 20° C.): 6.8 × 10^6 and 5.7 × 10^6
Visual evaluation after 4 weeks ([1]; 250 mg/l): +

O=C([O-])c1ccccc1.[Na+] [Na benzoate, Sodium benzoate, reference compound]
Germ number after 24 h (carried out in duplicate) ([2]; 177 mg/l): 1.3 × 10^5 and 1.1 × 10^5
Germ number after 24 h (carried out in duplicate) (Saccharomyces cerevisiae; [9]): 6.8 × 10^5 and 5.3 × 10^5
Visual evaluation after 4 weeks (Saccharomyces cerevisiae; [9]): +
Germ number after 24 h (carried out in duplicate) (Saccharomyces cerevisiae; [10]): 2.6 × 10^6 and 2.2 × 10^6
Visual evaluation after 4 weeks (Saccharomyces cerevisiae; [10]): +
Germ number after 24 h (carried out in duplicate) (Saccharomyces cerevisiae; [11]): 1.3 × 10^5 and 1.1 × 10^5
Visual evaluation after 4 weeks (Saccharomyces cerevisiae; [11]): +
Visual evaluation after 4 weeks ([1]; 177 mg/l): +

C/C=C/C=C/C(=O)OC(=O)/C=C/C=C/C [Sorbic anhydride, sorbic anhydride]
Germ number after 24 h (carried out in duplicate) ([2]; 50 mg/l): 2.6 × 10^5 and 1.8 × 10^5
Germ number after 24 h (carried out in duplicate) ([2]; 100 mg/l): 9.2 × 10^4 and 9.4 × 10^4
Germ number after 24 h (carried out in duplicate) ([2]; 250 mg/l): 985 and 1080
Germ number after 24 h (carried out in duplicate) (Saccharomyces cerevisiae; [12]): <10
Visual evaluation after 4 weeks (Saccharomyces cerevisiae; [12]): −
Germ number after 24 h (carried out in duplicate) (Saccharomyces cerevisiae; [13]): <10
Visual evaluation after 4 weeks (Saccharomyces cerevisiae; [13]): −
Germ number after 24 h (carried out in duplicate) (Saccharomyces cerevisiae; [8]): <10
Visual evaluation after 4 weeks (Saccharomyces cerevisiae; [8]): −
Visual evaluation after 4 weeks ([1]; 50 mg/l): +
Visual evaluation after 4 weeks ([1]; 100 mg/l): +
Visual evaluation after 4 weeks ([1]; 250 mg/l): −
